Reference: PubChem BioAssay (NCI)
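Cultured in 96-well plates, cells were exposed to test compound for 48 hours across five concentrations. TGI is the concentration that stops growth completely.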

What was measured:
Experiment in all cases: NCI tumour cell line growth inhibition, 48 h
PC-3 prostate = system: PC-3 prostate
MALME-3M melanoma = system: MALME-3M melanoma
EKVX NSCLC = system: EKVX NSCLC
NCI-H460 lung = system: NCI-H460 lung
MDA-MB-231 breast = system: MDA-MB-231 breast
UACC-62 melanoma = system: UACC-62 melanoma
RPMI-8226 leukemia = system: RPMI-8226 leukemia
MDA-MB-435 = system: MDA-MB-435
SK-MEL-28 melanoma = system: SK-MEL-28 melanoma
CCRF-CEM leukemia = system: CCRF-CEM leukemia
NCI/ADR-RES ovarian = system: NCI/ADR-RES ovarian
SNB-19 CNS = system: SNB-19 CNS
SN12C renal = system: SN12C renal
CAKI-1 renal = system: CAKI-1 renal
HCT-15 colon = system: HCT-15 colon
OVCAR-8 ovarian = system: OVCAR-8 ovarian
TK-10 renal = system: TK-10 renal
SW-620 colon = system: SW-620 colon
SF-268 CNS = system: SF-268 CNS

Row | Structure (SMILES) | TGI (PC-3 prostate) | TGI (MALME-3M melanoma) | TGI (EKVX NSCLC) | TGI (NCI-H460 lung) | TGI (MDA-MB-231 breast) | TGI (UACC-62 melanoma) | TGI (RPMI-8226 leukemia) | TGI (MDA-MB-435) | TGI (SK-MEL-28 melanoma) | TGI (CCRF-CEM leukemia) | TGI (NCI/ADR-RES ovarian) | TGI (SNB-19 CNS) | TGI (SN12C renal) | TGI (CAKI-1 renal) | TGI (HCT-15 colon) | TGI (OVCAR-8 ovarian) | TGI (TK-10 renal) | TGI (SW-620 colon) | TGI (SF-268 CNS)
1 | CCOC(=O)CC(=O)NC1CC2CCC1(C)C2(C)C (stereo not given) | > 100 µM | > 100 µM | > 100 µM | > 100 µM | > 100 µM | > 100 µM | > 100 µM | > 100 µM | > 100 µM | > 100 µM | > 100 µM | > 100 µM | > 100 µM | > 100 µM | > 100 µM | > 100 µM | > 100 µM | > 100 µM | > 100 µM
2 | CN(C)c1nc(N(C)C)nc(N(C)C)n1 | > 150 µM | > 150 µM | > 150 µM | > 150 µM | > 150 µM | > 150 µM | > 150 µM | > 150 µM | > 150 µM | > 150 µM | > 150 µM | > 150 µM | > 150 µM | > 140 µM | > 150 µM | > 150 µM | > 150 µM | > 150 µM | > 150 µM
3 | C[C@]12CC[C@@H]3c4ccc(O)cc4CC[C@H]3[C@@H]1C/C(=C\c1ccc([N+](=O)[O-])cc1)C2=O | > 100 µM | > 100 µM | > 100 µM | > 100 µM | > 100 µM | > 100 µM | > 100 µM | > 100 µM | > 100 µM | > 100 µM | > 100 µM | > 100 µM | > 100 µM | > 100 µM | > 100 µM | > 100 µM | > 100 µM | > 100 µM | > 100 µM
4 | CCCCCCCCC[C@@H]1C[C@@H]2CCC3C(C(=O)OC)=C(C)NC(=N1)N32 (stereo not given in full) | 18.3 µM | 29 µM | 26.8 µM | 16.3 µM | 20 µM | 17.4 µM | > 100 µM | 6.04 µM | > 100 µM | > 100 µM | 52.2 µM | 18.6 µM | 32.5 µM | 37.8 µM | 38.3 µM | 23.7 µM | 29.1 µM | > 100 µM | 23.5 µM
5 | CC(C)=CCC[C@]1(C)CC[C@]2(C)C3CCC(=C(C)C)[C@@H](CCCO)[C@]3(C)CC[C@@]2(C)C1 (stereo not given in full) | > 100 µM | > 100 µM | > 100 µM | > 100 µM | > 100 µM | > 100 µM | > 100 µM | > 100 µM | > 100 µM | > 100 µM | > 100 µM | > 100 µM | > 100 µM | > 100 µM | > 100 µM | > 100 µM | 44.3 µM | > 100 µM | > 100 µM
6 | CN(C1=NCCO1)c1cccc2ccccc12 | > 10 µM | > 10 µM | > 10 µM | > 10 µM | > 10 µM | > 10 µM | > 10 µM | > 10 µM | > 10 µM | > 10 µM | > 10 µM | > 10 µM | > 10 µM | > 10 µM | > 10 µM | > 10 µM | > 10 µM | > 10 µM | > 10 µM
7 | CCC1(C)C=Cc2c(cc(OC)c3c(=O)c4ccccc4n(C)c23)O1 (stereo not given) | > 10 µM | > 10 µM | > 10 µM | > 10 µM | > 10 µM | > 10 µM | > 10 µM | > 10 µM | > 10 µM | > 10 µM | > 10 µM | > 10 µM | > 10 µM | 2.53 µM | > 10 µM | > 10 µM | > 10 µM | > 10 µM | > 10 µM
8 | S=c1ssc2c3ssc(=S)c3n(Cc3ccccc3)c12 | > 100 µM | > 100 µM | > 100 µM | > 100 µM | > 100 µM | > 100 µM | > 100 µM | > 100 µM | > 100 µM | 58.2 µM | > 100 µM | > 100 µM | > 100 µM | > 100 µM | > 100 µM | > 100 µM | > 100 µM | > 100 µM | > 100 µM
9 | CCOC(=O)/C(C#N)=C/c1ccc2c(-c3c(OCC)ccc4cc(/C=C(\C#N)C(=O)OCC)ccc34)c(OCC)ccc2c1 | > 100 µM | > 100 µM | > 100 µM | > 100 µM | 56.1 µM | > 100 µM | > 100 µM | > 100 µM | > 100 µM | > 100 µM | > 100 µM | > 100 µM | > 100 µM | > 100 µM | > 100 µM | > 100 µM | > 100 µM | > 100 µM | > 100 µM
10 | COc1ccc(OC)c(C2CCc3nc4nc(N)nc(N)c4cc3C2)c1 (stereo not given) | 11.5 µM | 3.57 µM | 28.1 µM | 19.2 µM | 5.4 µM | 4.18 µM | 19 µM | 4.09 µM | 6.34 µM | 9.44 µM | > 100 µM | 6.01 µM | 3.33 µM | > 56.2 µM | 47.5 µM | 6.93 µM | 23.6 µM | 9.12 µM | 10.4 µM
11 | CCN(CC)c1ccc(/C=C(\C#N)c2nc(N)nc(N3N=C(C)CC3(C)C)n2)cc1 | > 100 µM | 41 µM | > 76.2 µM | 44.5 µM | 26.8 µM | > 100 µM | > 100 µM | > 100 µM | > 100 µM | > 100 µM | > 49.4 µM | 37.1 µM | 71.2 µM | 28.4 µM | > 100 µM | 24.4 µM | 31.7 µM | > 100 µM | > 54 µM
12 | Clc1ccc(-c2nn3c(CCCCCCCCc4nnc5sc(-c6ccc(Cl)cc6)nn45)nnc3s2)cc1 | 69.7 µM | > 90.4 µM | > 83 µM | > 100 µM | > 100 µM | > 100 µM | 72.2 µM | > 88 µM | > 79.7 µM | 60.3 µM | > 87.2 µM | > 87.6 µM | > 63.1 µM | 46.1 µM | > 100 µM | > 94.8 µM | > 100 µM | > 100 µM | > 100 µM
13 | CNc1ncnc(Sc2nc(N)nc3nc[nH]c23)c1[N+](=O)[O-] | 22 µM | 18.9 µM | 47 µM | 3.28 µM | 20.6 µM | 16.2 µM | 1.79 µM | 12 µM | 22.2 µM | 0.892 µM | 34.4 µM | > 81.2 µM | 11.9 µM | 12.9 µM | 14 µM | 18.5 µM | 0.941 µM | 20.6 µM | > 36.5 µM
14 | C=C(O)c1ccccc1C#Cc1ccccc1C(=O)OC | > 10 µM | > 10 µM | > 10 µM | > 10 µM | > 10 µM | > 10 µM | > 10 µM | > 10 µM | > 10 µM | > 10 µM | > 10 µM | > 10 µM | > 10 µM | > 10 µM | > 10 µM | > 10 µM | > 10 µM | > 10 µM | > 10 µM
15 | COc1cc(NS(C)(=O)=O)ccc1NCc1cnc2ccc3[nH]c(C)ccc3c12 | > 100 µM | > 100 µM | > 100 µM | > 100 µM | > 100 µM | > 100 µM | 45.2 µM | 80.4 µM | > 100 µM | 67.2 µM | > 100 µM | > 100 µM | > 100 µM | 68.8 µM | > 100 µM | > 100 µM | > 100 µM | > 100 µM | > 100 µM
16 | CCOC(=O)c1cc2cc(N(C(C)=O)C(C)=O)ccc2s1 | 46.2 µM | 46.1 µM | 55.9 µM | > 100 µM | 58.7 µM | > 100 µM | 45.3 µM | > 100 µM | > 100 µM | > 100 µM | > 100 µM | > 100 µM | 71.2 µM | > 100 µM | > 100 µM | 93.2 µM | > 100 µM | > 100 µM | 80.6 µM
17 | Clc1ccc(N=C/C=C/Nc2ccc(Cl)cn2)nc1 | 27.6 µM | 31.2 µM | 13.9 µM | 32.7 µM | 16.2 µM | 26.2 µM | 37.1 µM | 27.6 µM | 32.9 µM | 9.41 µM | 32.6 µM | 30.1 µM | 28.6 µM | 25.1 µM | 13 µM | 23.3 µM | 34.9 µM | 16.9 µM | 30.6 µM
18 | CCN(CC)C(=S)SS(=O)(=O)c1ccccc1C(=O)O | > 100 µM | > 100 µM | > 100 µM | > 100 µM | > 100 µM | > 100 µM | > 100 µM | > 100 µM | > 100 µM | > 100 µM | > 100 µM | > 100 µM | > 100 µM | > 100 µM | > 100 µM | > 100 µM | > 100 µM | > 100 µM | > 100 µM
19 | Cc1ccc(S(=O)ON2CCC(C(=O)O)(c3ccccc3)CC2)cc1 (stereo not given) | > 100 µM | > 100 µM | > 100 µM | > 100 µM | > 100 µM | > 100 µM | > 100 µM | > 100 µM | > 100 µM | > 100 µM | > 100 µM | > 100 µM | > 100 µM | > 100 µM | > 100 µM | > 100 µM | > 100 µM | > 100 µM | > 100 µM
20 | O=c1c2ccccc2nc2n1NC(c1c(Cl)cccc1Cl)N2c1cccc(Cl)c1 (stereo not given) | 28.1 µM | 29.7 µM | > 100 µM | 34.6 µM | 9.94 µM | 22.9 µM | > 100 µM | > 100 µM | > 100 µM | > 100 µM | 68.5 µM | 18 µM | 21.9 µM | 47.2 µM | > 100 µM | 12 µM | 21.8 µM | 14.3 µM | > 100 µM
